From US10183011B2, “Anti-depression compounds” (Board of Regents of the University of Texas System, priority 2009, dated 2019)
Entries after “also recorded” stand apart in the source; their conditions may differ.

Columns and labels:
[1] = tested on: spinal cord motor neurons; experiment: Spinal motor neuron survival (ChAT) in G93A-SOD1 mice, treatment from disease onset (day 80); assay type: in vivo, mouse; conditions: 20 mg/kg/day from day 80; days 90-120
Method: FIG. 34A and FIG. 34B. P7C3A20 and P7C3 block motor neuron cell death in the spinal cord when administered at the time of disease onset to G93A-SOD1 mutant mice. Treatment of G93A-SOD1 mutant mice with 20 mg/kg/d of P7C3A20, P7C3 or Dimebon, or the appropriate vehicle, was initiated on day 80. Five mice from each group were sacrificed on days 90, 100, 110 and 120. The number of spinal cord motor neurons per cubic millimeter of lumbar spinal cord was determined through immunohistochemical staining for ChAT and quantification with NIH Image J software. All images were analyzed blind to treatment group. Spinal cord motor neurons in G93A-SOD1 mutant mice died over time as expected. Spinal cord motor neuron cell death was blocked by administration of P7C3A20. P7C3 was intermediately protective, while Dimebon had no neuroprotective efficacy. (FIG. 34A) Representative staining of ChAT of one ventral horn from each of the 5 mice in each treatment group at 110 days. (FIG. 34B) Graph representation.
Based on the promising results of early (day 40) administration of P7C3 to G93A-SOD1 mutant mice, we next sought to determine whether P7C3A20, P7C3 or Dimebon could protect ventral horn spinal motor neurons when administered at the expected time of disease onset (day 80). We initiated administration of either P7C3, P7C3A20 or Dimebon, each at a dose of 20 mg/kg/day, and analyzed motor neuron cell survival by staining lumbar spinal sections for choline acetyltransferase (ChAT). ChAT, the enzyme that synthesizes the neurotransmitter acetylcholine, serves as a marker for spinal cord motor neurons. All sections were counted blind to treatment group in order to quantify motor neuron survival, and five mice for each treatment group were analyzed at 90, 100, 110 and 120 days. Each treatment group was compared to its own sibling-matched group that received the corresponding vehicle. […]

[2] = tested on: U2OS cells; experiment: Calcium ionophore A23187-induced loss of mitochondrial membrane potential (TMRM dye release); assay type: cell-based
From the text: FIG. 22A, FIG. 22B, FIG. 22C, FIG. 22D, FIG. 22E and FIG. 22F: Example 45 Compound Preserves Mitochondrial Membrane Potential in Parallel to Proneurogenic Activity U2OS cells were loaded with tetramethylrhodamine methyl ester (TMRM) dye and then exposed to the calcium ionophore A23187 either in the presence or absence of test compounds. Example 45 Compound (FIG. 22A) preserved mitochondrial membrane potential following exposure to the calcium ionophore A23187 in a dose-dependent manner. The protective effect of P7C3 was enantiomeric specific. […] Each compound was evaluated in triplicate with similar results.
Extensive evidence pioneered by the laboratory of Xiaodong Wang has shown that an intrinsic pathway leading to programmed cell death emanates from mitochondria (Liu et al., Cell 1996, 86, 147-157; Yang et al., Science 1997, 275, 1129-1132). With the help of the Wang lab, assays were established to test whether Example 45 Compound might protect mitochondria from calcium-induced dissolution (Distelmaier et al., Cytometry A 2008, 73, 129-138). Tetramethylrhodamine methyl ester (TMRM) is a cell-permeant, cationic red-orange fluorescent dye that is readily sequestered by active mitochondria. When loaded with TMRM dye, vehicle-only treated cells released the dye within 15 minutes of exposure to the calcium ionophore A23187. By contrast, dye release was prevented in cells exposed to as little as […] of Example 45 Compound (FIG. 18A).
Since P7C3 ameliorates the death of newborn neurons in the dentate gyrus in living mice, it is possible that its function might relate to mitochondrial integrity. Assays were established to test whether P7C3 might protect cultured U2OS cells from calcium-induced mitochondrial dissolution (Distelmaier et al., Cytometry A 2008, 73, 129-138). Tetramethylrhodamine methylester (TMRM) dye is sequestered by active mitochondria, and, when loaded with TMRM, vehicle-treated cells released the dye within 15 rain of exposure to the calcium ionophor A23 187.

## Cc1ccc2c(c1)c1c(n2CCc2ccc(C)nc2)CCN(C)C1 [Dimebon, 2,3,4,5-Tetrahydro-2,8-dimethyl-5-(2-(6-methyl-3-pyridyl)ethyl)-1H-pyrido(4,3-b)indole, reference compound]
[1]
  spinal motor neuron cell death: indistinguishable from vehicle treatment groups

## OC(CNc1ccccc1)Cn1c2ccc(Br)cc2c2cc(Br)ccc21 (stereo not drawn) [Example 45 Compound]
[2]
  lowest amount that prevented TMRM dye release: ≤ 10 ng

## COc1cccc(NCC(F)Cn2c3ccc(Br)cc3c3cc(Br)ccc32)c1 (stereo not drawn) [Example P7C3A20, N-(3-(3,6-dibromo-9H-carbazol-9-yl)-2-fluoropropyl)-3-methoxyaniline]
[2]; TMRM dye
  preservation of mitochondrial membrane potential: protection of mitochondrial membrane permeability was observed at an enhanced level; also recorded: exhibited dye release protection at all doses tested
[1]
  spinal motor neuron cell death: provided significant protection from spinal motor neuron cell death

## OC(CNc1ccccc1)Cn1c2ccc(Br)cc2c2cc(Br)ccc21 (stereo not drawn) [Example P7C3]
[2]; U2OS cells
  lowest concentration that blocked TMRM dye release: ≤ 10 nM
[1]
  spinal motor neuron cell death: provided intermediate protection on days 100 (p=0.048) and 110 (p=0.01)
